According to patent publication US9216991B2 (Ares Trading S.A., priority 2012, dated 2015):

Biological target: T1, IRAK4 (Homo sapiens, UniProt Q9NWZ3)
T1 construct: His (N); TEV cleavage site (N)
T1 sequence (Q9NWZ3 1-460): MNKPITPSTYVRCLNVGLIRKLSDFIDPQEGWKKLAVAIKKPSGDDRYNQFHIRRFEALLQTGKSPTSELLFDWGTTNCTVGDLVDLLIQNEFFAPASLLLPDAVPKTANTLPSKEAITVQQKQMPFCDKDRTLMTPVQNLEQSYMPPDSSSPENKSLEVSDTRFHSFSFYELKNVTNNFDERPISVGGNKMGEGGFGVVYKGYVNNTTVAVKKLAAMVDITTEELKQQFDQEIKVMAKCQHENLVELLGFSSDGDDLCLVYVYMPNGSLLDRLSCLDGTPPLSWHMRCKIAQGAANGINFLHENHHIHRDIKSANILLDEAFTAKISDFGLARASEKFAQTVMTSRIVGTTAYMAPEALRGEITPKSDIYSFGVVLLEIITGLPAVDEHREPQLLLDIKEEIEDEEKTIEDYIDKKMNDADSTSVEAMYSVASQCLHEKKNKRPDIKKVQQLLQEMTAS
Test: IRAK4 Enzymatic Assay
Type: biochemical
Conditions: His-TEV-IRAK4 20 ng/well, ATP 2 μM, STK1-biotin peptide 300 nM, 3 hours at 30° C., FlashPlate radioactivity
Method in brief: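 Radiometric FlashPlate readout: biotin-STK1 substrate (300 nM) captured on streptavidin after EDTA stop and washes. Reaction used His-TEV-IRAK4 (20 ng/well), 2 μM [^33P]-spiked ATP and compound (1 nM-20 μM), incubated 3 h at 30 °C in 50 mM HEPES pH 7.0, 10 mM MgCl2, 5 mM MnCl2, 2 mM DTT.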

Row | IC50 [nM] | Compound
1 | 100 to 1000 | CN(C)C(=O)C(C)(C)n1cc(-c2cnc(-c3cccc(-c4cnn(C)c4)c3)nc2)cn1 [Example 149, N,N-Dimethyl-2-(4-{2-[3-(1-methyl-1H-pyrazol-4-yl)-phenyl]-pyrimidin-5-yl}-pyrazol-1-yl)-isobutyramide]
2 | 1000 to 5000 | Cn1cc(-c2cccc(-c3ncc(-c4cnn(C(C)(C)C(=O)N5CCOCC5)c4)cn3)c2)cn1 [Example 150, 2-Methyl-2-(4-{2-[3-(1-methyl-1H-pyrazol-4-yl)-phenyl]-pyrimidin-5-yl}-pyrazol-1-yl)-1-morpholin-4-yl-propan-1-one]
3 | 100 to 1000 | OCc1cc(-c2cccc(-c3ncc(-c4cnn(C5CCOCC5)c4)cn3)c2)ccn1 [Example 151, [4-(3-{5-[1-(Tetrahydro-pyran-4-yl)-1H-pyrazol-4-yl]-pyrimidin-2-yl}-phenyl)-pyridin-2-yl]-methanol]
4 | < 100 | COCCN(C)C(=O)[C@H]1CC[C@H](n2cc(-c3cnc(-c4cccc(-c5cnn(C)c5)c4)nc3)cn2)CC1 [Example 152, Trans-4-(4-{2-[3-(1-Methyl-1H-pyrazol-4-yl)-phenyl]-pyrimidin-5-yl}-pyrazol-1-yl)-cyclohexanecarboxylic acid (2-methoxy-ethyl)-methyl-amide]
5 | 1000 to 5000 | Cn1cc(-c2cccc(-c3ncc(-c4cn(C5CCOCC5)nc4C(=O)N4CC(O)C4)cn3)c2)cn1 [Example 153, (3-Hydroxy-azetidin-1-yl)-[4-{2-[3-(1-methyl-1H-pyrazol-4-yl)-phenyl]-pyrimidin-5-yl}-1-(tetrahydro-pyran-4-yl)-1H-pyrazol-3-yl]-methanone]
6 | 1000 to 5000 | Cn1cc(-c2cccc(-c3ncc(-c4cn(C5CCOCC5)nc4C(=O)NCCO)cn3)c2)cn1 [Example 154, 4-{2-[3-(1-Methyl-1H-pyrazol-4-yl)-phenyl]-pyrimidin-5-yl}-1-(tetrahydro-pyran-4-yl)-1H-pyrazole-3-carboxylic acid (2-hydroxy-ethyl)-amide]
7 | 1000 to 5000 | Cn1cc(-c2cccc(-c3ncc(-c4cn(C)nc4CO)cn3)c2)cn1 [Example 155, (1-Methyl-4-{2-[3-(1-methyl-1H-pyrazol-4-yl)-phenyl]-pyrimidin-5-yl}-1H-pyrazol-3-yl)-methanol]
8 | 100 to 1000 | Cn1cc(-c2cccc(-c3ncc(-c4cnn([C@H]5CC[C@@H](N)CC5)c4)cn3)c2)cn1 [Example 156, 4-(4-{2-[3-(1-Methyl-1H-pyrazol-4-yl)-phenyl]-pyrimidin-5-yl}-pyrazol-1-yl)-cyclohexylamine]
9 | 100 to 1000 | CNC(=O)C1CC(n2cc(-c3cnc(-c4cccc(-c5cnn(C)c5)c4)nc3)cn2)C1 (stereo not shown) [Example 157, 3-(4-{2-[3-(1-Methyl-1H-pyrazol-4-yl)-phenyl]-pyrimidin-5-yl}-pyrazol-1-yl)-cyclobutanecarboxylic acid methylamide]
10 | 100 to 1000 | CN(C)C(=O)C1CC(n2cc(-c3cnc(-c4cccc(-c5cnn(C)c5)c4)nc3)cn2)C1 (stereo not shown) [Example 158, 3-(4-{2-[3-(1-Methyl-1H-pyrazol-4-yl)-phenyl]-pyrimidin-5-yl}-pyrazol-1-yl)-cyclobutanecarboxylic acid dimethylamide]
11 | < 100 | COCCNC(=O)[C@H]1CC[C@H](n2cc(-c3cnc(-c4cccc(-c5cnn(C)c5)c4)nc3)cn2)CC1 [Example 159, Trans-4-(4-{2-[3-(1-Methyl-1H-pyrazol-4-yl)-phenyl]-pyrimidin-5-yl}-pyrazol-1-yl)-cyclohexanecarboxylic acid (2-methoxy-ethyl)-amide]
12 | < 100 | CN1CCN(C(=O)[C@H]2CC[C@H](n3cc(-c4cnc(-c5cccc(-c6cnn(C)c6)c5)nc4)cn3)CC2)CC1 [Example 160, Trans-(4-Methyl-piperazin-1-yl)-[4-(4-{2-[3-(1-methyl-1H-pyrazol-4-yl)-phenyl]-pyrimidin-5-yl}-pyrazol-1-yl)-cyclohexyl]-methanone]
13 | < 100 | CC(=O)N[C@H]1CC[C@@H](n2cc(-c3cnc(-c4cccc(-c5cnn(C)c5)c4)nc3)cn2)CC1 [Example 161, Cis-N-[4-(4-{2-[3-(1-Methyl-1H-pyrazol-4-yl)-phenyl]-pyrimidin-5-yl}-pyrazol-1-yl)-cyclohexyl]-acetamide]
14 | < 100 | Cn1cc(-c2cccc(-c3ncc(-c4cnn([C@H]5CC[C@H](C(=O)N6CCOCC6)CC5)c4)cn3)c2)cn1 [Example 162, Trans-[4-(4-{2-[3-(1-Methyl-1H-pyrazol-4-yl)-phenyl]-pyrimidin-5-yl}-pyrazol-1-yl)-cyclohexyl]-morpholin-4-yl-methanone]
15 | 100 to 1000 | CC(C)[C@H](CO)NC(=O)[C@H]1CC[C@H](n2cc(-c3cnc(-c4cccc(-c5cnn(C)c5)c4)nc3)cn2)CC1 [Example 163, Trans-4-(4-{2-[3-(1-Methyl-1H-pyrazol-4-yl)-phenyl]-pyrimidin-5-yl}-pyrazol-1-yl)-cyclohexanecarboxylic acid ((R)-1-hydroxymethyl-2-methyl-propyl)-amide]
16 | 100 to 1000 | COCCC(=O)N[C@H]1CC[C@@H](n2cc(-c3cnc(-c4cccc(-c5cnn(C)c5)c4)nc3)cn2)CC1 [Example 166, Cis-3-Methoxy-N-[4-(4-{2-[3-(1-methyl-1H-pyrazol-4-yl)-phenyl]-pyrimidin-5-yl}-pyrazol-1-yl)-cyclohexyl]-propionamide]
17 | 100 to 1000 | Cn1cc(-c2cccc(-c3ncc(-c4cnn(C5CCN([C@H]6CCOC[C@H]6F)CC5)c4)cn3)c2)cn1 [Example 167, 5-{1-[1-((3S,4S)-3-Fluoro-tetrahydro-pyran-4-yl)-piperidin-4-yl]-1H-pyrazol-4-yl}-2-[3-(1-methyl-1H-pyrazol-4-yl)-phenyl]-pyrimidine]
18 | < 100 | CO[C@@H]1CCN(C(=O)[C@H]2CC[C@H](n3cc(-c4cnc(-c5cccc(-c6cnn(C)c6)c5)nc4)cn3)CC2)C1 [Example 168, ((R)-3-Methoxy-pyrrolidin-1-yl)-trans-[4-(4-{2-[3-(1-methyl-1H-pyrazol-4-yl)-phenyl]-pyrimidin-5-yl}-pyrazol-1-yl)-cyclohexyl]-methanone]
19 | 1000 to 5000 | CNC(=O)C(CCO)n1cc(-c2cnc(-c3cccc(-c4cnn(C)c4)c3)nc2)cn1 (stereo not shown) [Example 169, 4-Hydroxy-N-methyl-2-(4-{2-[3-(1-methyl-1H-pyrazol-4-yl)-phenyl]-pyrimidin-5-yl}-pyrazol-1-yl)-butyramide]
20 | < 100 | Cn1cc(-c2cccc(-c3ncc(-c4cnn([C@H]5CC[C@H](C(=O)NC6CC6)CC5)c4)cn3)c2)cn1 [Example 170, Trans-4-(4-{2-[3-(1-Methyl-1H-pyrazol-4-yl)-phenyl]-pyrimidin-5-yl}-pyrazol-1-yl)-cyclohexanecarboxylic acid cyclopropylamide]
21 | < 100 | CN(C)CCNC(=O)[C@H]1CC[C@H](n2cc(-c3cnc(-c4cccc(-c5cnn(C)c5)c4)nc3)cn2)CC1 [Example 171, 4-(4-{2-[3-(1-Methyl-1H-pyrazol-4-yl)-phenyl]-pyrimidin-5-yl}-pyrazol-1-yl)-cyclohexanecarboxylic acid (2-dimethylamino-ethyl)-amide]
22 | < 100 | Cn1cc(-c2cccc(-c3ncc(-c4cnn(C5CCCNCC5)c4)cn3)c2)cn1 (stereo not shown) [Example 172, 4-(4-{2-[3-(1-Methyl-1H-pyrazol-4-yl)-phenyl]-pyrimidin-5-yl}-pyrazol-1-yl)-azepane]
23 | < 100 | CC(C)CNC(=O)[C@H]1CC[C@H](n2cc(-c3cnc(-c4cccc(-c5cnn(C)c5)c4)nc3)cn2)CC1 [Example 173, Trans-4-(4-{2-[3-(1-Methyl-1H-pyrazol-4-yl)-phenyl]-pyrimidin-5-yl}-pyrazol-1-yl)-cyclohexanecarboxylic acid isobutyl-amide]
24 | 100 to 1000 | CC(C)NC(=O)[C@H]1CC[C@H](n2cc(-c3cnc(-c4cccc(-c5cnn(C)c5)c4)nc3)cn2)CC1 [Example 174, 4-(4-{2-[3-(1-Methyl-1H-pyrazol-4-yl)-phenyl]-pyrimidin-5-yl}-pyrazol-1-yl)-cyclohexanecarboxylic acid isopropylamide]
25 | 100 to 1000 | Cn1cc(-c2cccc(-c3ncc(-c4cnn(C5CCN(c6ccccc6F)CC5)c4)cn3)c2)cn1 [Example 175, 5-{1-[1-(2-Fluoro-phenyl)-piperidin-4-yl]-1H-pyrazol-4-yl}-2-[3-(1-methyl-1H-pyrazol-4-yl)-phenyl]-pyrimidine]
26 | 100 to 1000 | Cn1cc(-c2cccc(-c3ncc(-c4cnn(C5CCS(=O)(=O)CC5)c4)cn3)c2)cn1 [Example 176, 5-[1-(1,1-Dioxo-hexahydro-1l6-thiopyran-4-yl)-1H-pyrazol-4-yl]-2-[3-(1-methyl-1H-pyrazol-4-yl)-phenyl]-pyrimidine]
27 | < 100 | Cn1cc(-c2cccc(-c3ncc(-c4cnn(C5CCCS(=O)(=O)C5)c4)cn3)c2)cn1 (stereo not shown) [Example 177, 5-[1-(1,1-Dioxo-hexahydro-1l6-thiopyran-3-yl)-1H-pyrazol-4-yl]-2-[3-(1-methyl-1H-pyrazol-4-yl)-phenyl]-pyrimidin]
28 | < 100 | COCC(C)NC(=O)[C@H]1CC[C@H](n2cc(-c3cnc(-c4cccc(-c5cnn(C)c5)c4)nc3)cn2)CC1 (stereo partly shown) [Example 178, 4-(4-{2-[3-(1-Methyl-1H-pyrazol-4-yl)-phenyl]-pyrimidin-5-yl}-pyrazol-1-yl)-cyclohexanecarboxylic acid (2-methoxy-1-methyl-ethyl)-amide]
